Reference: publication PMC9510126, “Hydrophobicity is a key determinant in the activity of arginine-rich cell penetrating peptides” (Scientific Reports, 2022)
Ends that are not written are not given here. * marks the point of attachment. carboxyfluorescein = carboxyfluorescein fluorophore coupled to the lysine ε-amine; DEAC = CCN(CC)c1ccc2cc(C(=O)*)c(=O)oc2c1

Columns and labels:
[1] = RP-18 TLC hydrophobicity (1-Rf) of Ac-X-NH2 analogs; format: physicochemical; settings: RP18 TLC, 40% acetonitrile / 60% PBS (10 mM phosphate buffer), pH 4 vs pH 8
Method: In order to assess the hydrophobicity contributed by each X group, the peptides were first analyzed by reverse phase HPLC using a C18 column, using gradients of buffer A (water/TFA 99.9:0.1) and buffer B (acetonitrile/water/TFA 89.9:10:0.1 v:v:v) (gradient of 0–40% B over 20 min). […] All d(X)TAT peptides eluted over a range of 10–35% acetonitrile. […] One caveat of this approach is that the buffer system used for peptide analysis is pH 2 (due to the presence of TFA, required to protonate residue side chains). However, pH 2 is not representative of the pH that CPPs may be exposed to when in contact with cells, either pH 7.2 outside the plasma membrane, or pH between 6.5 and 4.5 while inside acidic endosomes. In order to establish the relative hydrophobicities of d(X)TAT peptides at these pHs, we sought to use other techniques, including thin layer chromatography using C18, aluminum oxide or silica stationary phases. Unfortunately, the arginine-rich peptides could not be separated on these systems. To solve this problem, each individual X group was synthesized, using acetylated and amidated N and C-terminal positions to mimic the peptide backbone found in the d(X)TAT constructs (Fig. 1A, Figure S11). Each Ac-X-NH2 group was analyzed by HPLC and by RP18 TLC, using 40% acetonitrile and 60% PBS as mobile phase. The HPLC elutions of Ac-X-NH2 correlated with the HPLC elutions of their respective d(X)TAT counterparts (Fig. 1C). Similarly, the relative hydrophobicities of Ac-X-NH2 determined by TLC (measured as 1-Rf) at pH 4 or 8 were in good agreement with the results obtained by HPLC (Fig. 1D). […] In the case of DEAC, the protonation state of the fluorophore has, to our knowledge, not been characterized.
Hydrophobic substituents (10 µL) were developed on aluminum-backed F254 RP-18 TLC plates (EMD Millipore). Plates were cut into 6 cm × 6 cm squares and developed in 40% acetonitrile/60% 10 mM phosphate buffer first along one axis at pH 2.0, then along the second axis at pH 7.4. Peptide substituents that could not be easily identified under long-wave UV light were stained with iodine for 10–20 min. Retention factors (Rf) were calculated based on the distance traveled by each compound between the starting spotted location and the final solvent front location.

[2] = system: MDA-MB-231 cells; assay: Staining of endosomes with LysoTracker (puncta per cell); format: cell-based, human; settings: for lysotracker stained puncta, control agents: MDA-MB-231, LLOME 1 mM 10 min, bafilomycin 1 µM 4 h; for lysotracker-positive puncta per cell 12 h after incubation: MDA-MB-231, 1 h with peptide 1.5 μM, then 12 h in DMEM; for lysotracker stained endosomes (puncta per cell) immediately after incubation: MDA-MB-231, 1 h with peptide (X = K(Ac), WW, FFLIP at 10, 1.5, 1.5 μM), LysoTracker Green DND-26 500 nM 5 min, biological triplicates
Method: Given that hydrophobicity of the d(X)TAT peptides appears to contribute to their membrane permeation activities, we next sought to establish whether this relationship could be recapitulated with membrane models, i.e. lipid bilayers. To establish which membrane system to test, we first aimed to test whether d(X)TAT peptides generally recapitulate the mechanism of cell entry previously determined with dfTAT. For this purpose, the delivery of TMR-k5 was performed in cells transfected with dominant-negative (DN) rab7(T22N), a protein that disrupts trafficking from early endosomes to late endosomes[29],[30]. For these experiments, d(WW)TAT and d(FFLIP)TAT were chosen as two “high activity/hydrophobicity” d(X)TAT representatives. […] In this case, approximately 5% of cells remained positive for TMR-k5 nuclear staining. […] To further probe the cell penetration mechanism, the number of endosomal organelles stained by Lysotracker in cells before and after delivery was quantified. The rationale behind this assay is that lysotracker accumulates in acidified organelles, typically late endosomes and lysosomes, that endosomal membrane leakage causes an increase of endosomal pH (presumably via leakage of luminal H^+ into the cytosol), and that, consequently, endosomes rendered potentially leaky by d(X)TAT peptides will not be stained by lysotracker.
For the quantification of acidic vesicles, cells were treated with LysoTracker Green DND-26 (500 nM) for 5 min. Alternatively, cells were pretreated with L-Leu-L-Leu methyl ester (LLOME; Sigma-Aldrich) incubated at 1 mM for 10 min, or bafilomycin (Sigma-Aldrich) at 1 µM for 4 h, and then stained with LysoTracker. Likewise, cells were pretreated with d(X)TAT peptides (X = K(Ac), WW, or FFLIP at 10, 1.5, and 1.5 μM) for 1 h. Cells were then washed an stained with LysoTracker immediately or after 12 h incubation in DMEM. For all conditions, fluorescence microscopy images were acquired using the 100× objective on an Olympus IX-81 microscope. ImageJ was used to calculate the number of LysoTracker-stained puncta per cell, as well as the area of each individual puncta. This analysis was performed for 50 cells imaged for each condition and reproduced in biological triplicates.

[3] = system: MDA-MB-231 cells; assay: Delivery of TMR-k5 probe into live cells (nuclear staining); format: cell-based, human; settings: 1 h, biological triplicates; for TMR-k5 delivery activity (cells with TMR-k5 nuclear staining): MDA-MB-231, d(X)TAT at various concentrations + TMR-k5 20 μM, fluorescence microscopy; for d(X)TAT concentration at which delivery is achieved in a high percentage of cells: MDA-MB-231, TMR-k5 20 μM
Text: To test the relative delivery efficiency of the d(X)TAT peptides, the cell lines MDA-MB-231 (epithelial-like, human breast cancer, spindle-shaped) and Neuro-2a (mouse neuroblastoma with neuronal and amoeboid stem cell morphology) were chosen. These cell lines are routinely used in cancer research, neuroscience, and toxicology. In the context of this study, we rationalized that the distinct differences in origin and characteristics between MDA-MB-231 and Neuro-2a properties may be useful to assess the generality of the results obtained. MDA-MB-231 or Neuro-2a cells were incubated with d(X)TAT peptides at various concentrations and TMR-k5 (20 μM) for 1 h. Cells were then washed, incubated with the DNA stain Hoechst and the live/dead marker SYTOX green (or SYTOX blue), and imaged by fluorescence microscopy. The localization of TMR-k5 in individual nuclei was then assessed by measuring the overlap between TMR and Hoechst signals (Fig. 2, Figure S13). […] This is because, in our experience, dfTAT and dfTAT analogs display a threshold behavior where, below a certain endosomal concentration, endosomal leakage is not achieved. In contrast above this threshold most late endosomes are permeabilized. […] Our rationale was therefore to titrate cells with different concentrations of d(X)TAT agents, monitor how many cells display cytosolic/nuclear delivery of TMR-k5, and compare the different d(X)TAT peptides.
MDA-MB-231 and Neuro2a cells obtained from ATCC (breast cancer-derived epithelial) were cultured in humidified atmosphere at 5% CO2 and 37 °C. Cells were seeded in plastic 48-well plates (Fisher) for quantitative analysis or 8-well Labtek II plates (Fisher) for qualitative imaging at 100× magnification. The cells were grown to 80–90% confluency in a 37 °C humidified atmosphere containing 5% CO2. Cells were washed three times with Leibovitz’s L15 media (L15) (Fisher). Cells were then incubated with peptide and 20 µM of the TMR-k5 pentalysine probe at 37 °C for 1 h. This was followed by washing the cells three times with L15 supplemented with heparin (Sigma-Aldrich) (1 mg/mL) and an extra L15 wash. […] Additionally, the cell permeable dye Hoechst 33342 (Thermo Fisher Scientific o) was used for nuclear staining. Cells were imaged using an EVOS FL Auto 2 inverted microscope (Thermo Fisher Scientific). The microscope is equipped with a heating chamber maintained at 37 °C. Images were acquired using bright field imaging and five fluorescence filter sets: CFP (Ex = 436 ± 10 nm, Em = 480 ± 20 nm), RFP (Ex = 560 ± 20 nm, Em = 630 ± 35 nm), FITC (Ex = 488 ± 10 nm Em = 520 ± 20 nm), DAPI (Ex = 350 ± 50 nm, Em = 460 ± 25 nm), […]. For image viewing and processing individual images, the Celleste 4.0 software (Thermo Fisher Scientific) was used. Nuclear regions in 20× images where identified using Hoechst staining (the quantification process is described in Figure S13). The intensity of these objects in the TMR channel was then determined using the Celleste software. Cells stained by the SYTOX or DRAQ dyes were considered dead and not counted as positive for delivery. Cells displaying a nuclear TMR-k5 fluorescence above the fluorescence threshold determined for TMR-k5 alone were considered positive for delivery (if excluding SYTOX or DRAQ7 stain, and if visually showing stained nucleoli for confirmation of intracellular localization). The percentage of cells positive for TMR-k5 nuclear staining was then calculated, using Hoechst-stained cells to count the total number of cells present. […] Instead, this assay quantifies the number of cells in which the nuclear fluorescence of TMR-k5 is above a detection threshold. This threshold is dependent on the microscope, imaging conditions, and the concentration of TMR-k5 used during incubation (Figure S13). The reproducibility of all the experiments was assessed by performing experiments with independent batches of cell cultures on three different days (i.e., biological triplicates). […]

[4] = system: Neuro-2a cells; assay: Delivery inhibition with dominant negative rab7 or CytoD; format: cell-based, mouse; settings: for cells with TMR-k5 delivery, EGFP-DN-rab7 transfected / nuclear staining of delivered TMR-k5 in cells transfected with EGFP-DN-rab7: Neuro-2a (Fig. 4A), TMR-k5 20 μM, 1 h; for nuclear staining of delivered TMR-k5 in cells transfected with EGFP-DN-rab7: biological triplicates; for cells positive for TMR-k5 nuclear staining in the presence of cytochalasin D / delivery of TMR-k5 in the presence of cytochalasin D: cytoD 20 μM, 30 min pre-incubation and present during 1 h delivery

In the case of `CC(=O)N[C@@H](Cc1ccccc1)C(N)=O` [Ac-F-NH2], the “pH dependence of TLC retention (1-Rf)” value [1] is reported as “independent of pH”.
With `CCN(CC)c1ccc2cc(C(=O)NCCCCC(NC(C)=O)C(N)=O)c(=O)oc2c1` (stereo not drawn) [Ac-K(DEAC)-NH2] the “pH dependence of TLC retention (1-Rf)” value [1] was “higher hydrophobicity at pH 4 than at pH 8”.
With `CC(=O)N[C@@H](Cc1c[nH]c2ccccc12)C(N)=O` [Ac-W-NH2] the “pH dependence of TLC retention (1-Rf)” value [1] was “independent of pH”.
With `CC(=O)N[C@@H](Cc1ccc(O)cc1)C(N)=O` [Ac-Y-NH2] the “pH dependence of TLC retention (1-Rf)” value [1] was “independent of pH”.
In the case of `COC(=O)[C@H](CC(C)C)NC(=O)[C@@H](N)CC(C)C` [LLOME, L-Leucine-L-Leucine methyl ester, reference compound], the “lysotracker stained puncta, control agents” value [2] is reported as “reduced the number of lysotracker stained puncta”.
With `CO/C1=C\C(C)=C\[C@@H](C)[C@@H](O)[C@@H](C)C/C(C)=C/C=C/[C@H](OC)[C@@H]([C@@H](C)[C@@H](O)[C@H](C)[C@@]2(O)C[C@@H](O)[C@H](C)[C@@H](C(C)C)O2)OC1=O` [bafilomycin, reference compound] the “lysotracker stained puncta, control agents” value [2] was “reduced the number of lysotracker stained puncta”.
In the case of “d(F)TAT: disulfide dimer of CXRKKRRQRRRG with X = F (CFRKKRRQRRRG-NH2; also: disulfide dimer)”, the “TMR-k5 delivery activity (cells with TMR-k5 nuclear staining)” value (from here on “TMR-k5 delivery activity”) [3] is reported as “little to no TMR-k5 delivery is detected”.
For “d(FFLIP)TAT: disulfide dimer of CXRKKRRQRRRG with X = FFLIP (penetration accelerating sequence, Pas)”, the “d(X)TAT concentration at which delivery is achieved in a high percentage of cells” value [3] was less than 3 µM, the “cells with TMR-k5 delivery, EGFP-DN-rab7 transfected” value [4] was 20% and the “nuclear staining of delivered TMR-k5 in cells transfected with EGFP-DN-rab7” value [4] was “markedly reduced”. For the same molecule, the “cells positive for TMR-k5 nuclear staining in the presence of cytochalasin D” value [4] was “approximately 5%”, the “delivery of TMR-k5 in the presence of cytochalasin D” value [4] was “significantly reduced” and the “lysotracker-positive puncta per cell 12 h after incubation” value [2] was “restored to control level”. The “lysotracker stained endosomes (puncta per cell) immediately after incubation” value [2] was “caused a reduction in lysotracker stained endosomes”.
In the case of “d(K(DEAC))TAT: disulfide dimer of CXRKKRRQRRRG with X = lysine conjugated to 7-diethylaminocoumarin-3-carboxylic acid (CK(DEAC)RKKRRQRRRG-NH2; also: disulfide dimer)”, the “d(X)TAT concentration at which delivery is achieved in a high percentage of cells” value [3] is reported as less than 3 µM.
With “d(K(Fl))TAT: disulfide dimer of CXRKKRRQRRRG with X = lysine conjugated to carboxyfluorescein (CK(carboxyfluorescein)RKKRRQRRRG-NH2; also: disulfide dimer)” the “d(X)TAT concentration at which delivery is achieved in a high percentage of cells” value [3] was greater than 5 µM.
With “d(LL)TAT: disulfide dimer of CXRKKRRQRRRG with X = LL” the “d(X)TAT concentration at which delivery is achieved in a high percentage of cells” value [3] was greater than 5 µM.
For “d(W)TAT: disulfide dimer of CXRKKRRQRRRG with X = W (CWRKKRRQRRRG-NH2; also: disulfide dimer)”, the “TMR-k5 delivery activity” value [3] was “little to no TMR-k5 delivery is detected”.
In the case of “d(WW)TAT: disulfide dimer of CXRKKRRQRRRG with X = WW”, the “d(X)TAT concentration at which delivery is achieved in a high percentage of cells” value [3] is reported as less than 3 µM, the “cells with TMR-k5 delivery, EGFP-DN-rab7 transfected” value [4] is reported as 20% and the “nuclear staining of delivered TMR-k5 in cells transfected with EGFP-DN-rab7” value [4] is reported as “markedly reduced”. For the same molecule, the “cells positive for TMR-k5 nuclear staining in the presence of cytochalasin D” value [4] was “approximately 5%”, the “delivery of TMR-k5 in the presence of cytochalasin D” value [4] was “significantly reduced” and the “lysotracker-positive puncta per cell 12 h after incubation” value [2] was “restored to control level”. The “lysotracker stained endosomes (puncta per cell) immediately after incubation” value [2] was “caused a reduction in lysotracker stained endosomes”.
In the case of “d(Y)TAT: disulfide dimer of CXRKKRRQRRRG with X = Y (CYRKKRRQRRRG-NH2; also: disulfide dimer)”, the “TMR-k5 delivery activity” value [3] is reported as “little to no TMR-k5 delivery is detected”.
With “d(YFIL)TAT: disulfide dimer of CXRKKRRQRRRG with X = YFIL” the “d(X)TAT concentration at which delivery is achieved in a high percentage of cells” value [3] was less than 3 µM.
